Like-named read-outs stand apart in the source and are kept apart here.
Experiments:
Experiment in all cases: stopped-flow CO2 hydration assay
Format in all cases: biochemical
hCA IV = target: T1, hCA IV (Homo sapiens, UniProt P22748)
T1 construct: gene CA4
From the text: stopped-flow CO2 hydration assay on hCA IV

hCA II = target: T2, hCA II (Homo sapiens, UniProt P00918)
T2 construct: gene CA2; recombinant, cytosolic isoform
From the text: stopped-flow CO2 hydration assay on hCA II

hCA I = target: T3, hCA I (Homo sapiens, UniProt P00915)
T3 construct: gene CA1; recombinant, cytosolic isoform
T3 sequence (P00915 2-261): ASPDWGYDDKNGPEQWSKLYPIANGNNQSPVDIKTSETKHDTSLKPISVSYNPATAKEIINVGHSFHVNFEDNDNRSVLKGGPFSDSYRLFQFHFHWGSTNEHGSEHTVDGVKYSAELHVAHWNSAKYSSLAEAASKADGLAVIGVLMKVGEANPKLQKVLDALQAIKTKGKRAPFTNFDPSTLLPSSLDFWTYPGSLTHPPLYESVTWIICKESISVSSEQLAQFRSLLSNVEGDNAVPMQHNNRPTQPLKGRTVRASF
From the text: stopped-flow CO2 hydration assay on hCA I

[1] = CO2 hydration, […] Hepes pH […] °C, […] Na2SO4 or NaClO4, […] min preincubation

T1 sequence (P22748 19-284): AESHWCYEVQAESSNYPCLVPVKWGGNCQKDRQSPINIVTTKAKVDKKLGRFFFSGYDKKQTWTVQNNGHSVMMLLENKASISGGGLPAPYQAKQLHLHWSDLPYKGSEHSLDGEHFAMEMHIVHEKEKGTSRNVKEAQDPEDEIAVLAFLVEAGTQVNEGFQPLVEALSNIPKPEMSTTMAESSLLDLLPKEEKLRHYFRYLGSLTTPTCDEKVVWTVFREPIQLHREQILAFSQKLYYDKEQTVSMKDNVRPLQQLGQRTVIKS

Ki (hCA IV) [µM]	Ki (hCA II) [µM]	Ki (hCA I) [µM]	Ki (hCA II; [1]) [µM]	Ki (hCA I; [1]) [µM]	SMILES
0.691	0.0884	0.641			NS(=O)(=O)c1ccc(NC(=O)c2ccc3cccc(OCc4ccc([N+](=O)[O-])cc4)c3n2)cc1 [5a, 8-((4-Nitrobenzyl)oxy)-N-(4-sulfamoylphenyl)quinoline-2-carboxamide]
3.93	0.0857	0.444			NS(=O)(=O)c1ccc(NC(=O)c2ccc3cccc(OCc4ccccc4Br)c3n2)cc1 [5b, 8-((2-Bromobenzyl)oxy)-N-(4-sulfamoylphenyl)quinoline-2-carboxamide]
6.41	8.34	5.29			NS(=O)(=O)c1ccc(NC(=O)c2ccc3cccc(OCc4ccccc4)c3n2)cc1 [5c, 8-(Benzyloxy)-N-(4-sulfamoylphenyl)quinoline-2-carboxamide]
6.76	8.76	8.13			Cc1cc(C)cc(COc2cccc3ccc(C(=O)Nc4ccc(S(N)(=O)=O)cc4)nc23)c1 [5d, 8-((3,5-Dimethylbenzyl)oxy)-N-(4-sulfamoylphenyl)quinoline-2-carboxamide]
0.807	5.17	6.47			NS(=O)(=O)c1ccc(NC(=O)c2ccc3cccc(OCc4cccc(Cl)c4)c3n2)cc1 [5e, 8-((3-Chlorobenzyl)oxy)-N-(4-sulfamoylphenyl)quinoline-2-carboxamide]
0.787	0.957	6.56			NS(=O)(=O)c1ccc(NC(=O)c2ccc3cccc(OCc4cc(F)ccc4F)c3n2)cc1 [5f, 8-((2,5-Difluorobenzyl)oxy)-N-(4-sulfamoylphenyl)quinoline-2-carboxamide]
0.657	5.11	6.91			C#CCOc1cccc2ccc(C(=O)Nc3ccc(S(N)(=O)=O)cc3)nc12 [5g, 8-(Prop-2-yn-1-yloxy)-N-(4-sulfamoylphenyl)quinoline-2-carboxamide]
1.75			0.033	0.0619	COc1cccc2ccc(C(=O)Nc3ccc(S(N)(=O)=O)cc3)nc12 [5h, 8-Methoxy-N-(4-sulfamoylphenyl)quinoline-2-carboxamide]
